The conditions of series [1]: as observed in WO 2010/114928 and WO 2010/129570; cited from earlier work.
The nature of series [2]: Storage stability of the crystalline form at controlled temperature and relative humidity. It is filed as physicochemical. Particulars: up to at least 24 weeks, hydrochloride. An excerpt: Particularly, crystalline Vemurafenib HCl form II has high chemical purity and excellent stability properties. […] Therefore, the crystalline Vemurafenib HCl form II may be used to prepare an oral formulation which is stable and has a relatively small tablet or capsule size as the molar ratio of Vemurafenib to HCl is about 1:1, which is highly advantageous for preparing pharmaceutical compositions with high drug load.

The conditions of series [3]: conditions not given; cited from earlier work.
Another series in a line: Solubility. The series is classed as physicochemical.
Where [4] appears, read: 25° C. and 60% relative humidity (RH).

The values below come from patent publication US9440971B2, “Solid state forms of vemurafenib hydrochloride” (ratiopharm GmbH, priority 2013, dated 2016).

Each structure is given as a SMILES string. Structures can show the parent of a compound that is named as a salt. Where two headings read alike, the source gives them in different places.

Turning to `CCCS(=O)(=O)Nc1ccc(F)c(C(=O)c2c[nH]c3ncc(-c4ccc(Cl)cc4)cc23)c1F` [Vemurafenib, propane-1-sulfonic acid {3-[5-(4-chlorophenyl)-1H-pyrrolo[2,3-b]pyridine-3-carbonyl]-2,4-difluoro-phenyl}-amide], in series [1], the solubility entry is given as “extremely low solubility”.

On to `CCCS(=O)(=O)Nc1ccc(F)c(C(=O)c2c[nH]c3ncc(-c4ccc(Cl)cc4)cc23)c1F` [crystalline Vemurafenib HCl form I, Vemurafenib hydrochloride], for which the stability upon storage result in series [2] (setting [4]) and in series [2] (30° C./65% RH) was “converts to Vemurafenib free base” each time.

Turning to `CCCS(=O)(=O)Nc1ccc(F)c(C(=O)c2c[nH]c3ncc(-c4ccc(Cl)cc4)cc23)c1F` [Amorphous Vemurafenib], in series [3], the “stability of amorphous form” value is listed as “not stable”.

Take `CCCS(=O)(=O)Nc1ccc(F)c(C(=O)c2c[nH]c3ncc(-c4ccc(Cl)cc4)cc23)c1F` [crystalline Vemurafenib HCl form II, Vemurafenib hydrochloride]: the stability upon storage result in series [2] (setting [4]) and in series [2] (30° C./65% RH) was “stable” throughout. In addition, the solubility result in the series “Solubility” was “good solubility”.
